This note sets out measurements from patent US4457936A, “Use of hydroxyphenyl-thiazole-, -thiazoline- and -thiazolidine-carboxylic acids, for influencing the collagen metabolism” (Hoechst Aktiengesellschaft, priority 1980, dated 1984).

SMILES strings stand for the structures. Read-outs that look alike come from different tables or passages of the source.

One experiment has as its target prolyl hydroxylase (Homo sapiens, UniProt P13674). Put plainly: enzyme test, hydroxylation of insufficiently hydroxylated collagen by prolyl hydroxylase (cell-free). In kind it is biochemical. The source says: (§1) The inhibiting effect of the substances in accordance with the invention on collagen biosynthesis can be examined in an enzyme test analogous to the method of B. Peterkofsky and R. DiBlasio [Anal. Biochem. 66, 279-286 (1975)]. In this test, insufficiently hydroxylated collagen is enzymatically hydroxylated in the presence of molecular oxygen, iron-II ions, alpha-ketoglutaric and ascorbic acid.
(§2) As enzymes, prolyl hydroxylase or lysyl hydroxylase can be used and applied in a cell-free medium. The effect of the substances of the invention can be measured furthermore in cell and tissue cultures.
(§3) The inhibiting effect (DI50) is that concentration at which the enzyme reaction is inhibited by 50%.

Another experiment addresses T1, lysyl hydroxylase (Homo sapiens, UniProt Q02809).
T1 sequence (Q02809 19-727): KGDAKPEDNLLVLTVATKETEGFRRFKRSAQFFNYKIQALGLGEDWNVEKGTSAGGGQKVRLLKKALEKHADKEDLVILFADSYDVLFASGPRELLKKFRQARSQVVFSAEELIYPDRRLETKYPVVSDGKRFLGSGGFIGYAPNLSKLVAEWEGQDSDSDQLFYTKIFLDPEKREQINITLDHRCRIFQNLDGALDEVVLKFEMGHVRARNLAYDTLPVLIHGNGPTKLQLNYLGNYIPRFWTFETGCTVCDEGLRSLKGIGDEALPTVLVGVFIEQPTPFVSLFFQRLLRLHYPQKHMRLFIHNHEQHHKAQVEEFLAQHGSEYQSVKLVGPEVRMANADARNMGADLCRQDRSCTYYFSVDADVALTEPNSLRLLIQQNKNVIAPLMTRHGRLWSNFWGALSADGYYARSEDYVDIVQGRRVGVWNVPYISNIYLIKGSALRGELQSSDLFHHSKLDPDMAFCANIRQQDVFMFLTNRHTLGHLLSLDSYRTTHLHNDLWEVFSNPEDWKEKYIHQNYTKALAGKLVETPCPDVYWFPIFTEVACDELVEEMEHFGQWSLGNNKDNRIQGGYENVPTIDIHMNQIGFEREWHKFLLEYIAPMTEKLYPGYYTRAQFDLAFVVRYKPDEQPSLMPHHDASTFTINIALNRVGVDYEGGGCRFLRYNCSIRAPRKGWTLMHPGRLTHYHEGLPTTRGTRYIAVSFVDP
Put plainly: enzyme test, hydroxylation of insufficiently hydroxylated collagen by lysyl hydroxylase (cell-free). In kind it is biochemical.
Excerpt: as §1, §2, §3

The next experiment deals with collagen biosynthesis. Put plainly: inhibiting effect in cell culture. In kind it is cell-based. The note with it: read-out: DI50 cell culture.
Excerpt: as §2, §3

Where [1] appears, read: concentration at which the enzyme reaction is inhibited by 50%, first part of Table, read-out: DI50 propyl-hydroxylase.
Setting [2] is: concentration at which the enzyme reaction is inhibited by 50%, first part of Table, read-out: DI50 lysylhydroxylase.
Setting [3] is: second part of Table, P, read-out: DI50 P.circle.
Where [4] appears, read: second part of Table, column L (circled), read-out: DI50 L.circle.

Sequence of prolyl hydroxylase (P13674 18-534): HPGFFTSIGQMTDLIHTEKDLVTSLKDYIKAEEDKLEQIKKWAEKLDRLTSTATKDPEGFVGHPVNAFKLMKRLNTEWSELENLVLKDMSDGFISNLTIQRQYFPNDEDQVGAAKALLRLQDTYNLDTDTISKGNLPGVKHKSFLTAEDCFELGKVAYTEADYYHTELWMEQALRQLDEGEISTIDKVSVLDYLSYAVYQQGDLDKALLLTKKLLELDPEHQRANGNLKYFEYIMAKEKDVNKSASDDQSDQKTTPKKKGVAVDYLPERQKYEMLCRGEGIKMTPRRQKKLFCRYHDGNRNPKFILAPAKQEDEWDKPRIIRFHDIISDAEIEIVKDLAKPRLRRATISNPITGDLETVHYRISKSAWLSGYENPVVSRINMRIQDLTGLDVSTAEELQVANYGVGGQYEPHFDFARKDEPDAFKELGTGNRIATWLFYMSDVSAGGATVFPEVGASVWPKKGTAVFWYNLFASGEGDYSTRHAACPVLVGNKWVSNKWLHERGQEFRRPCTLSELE
Sequence of prolyl hydroxylase (P07237 18-508 partner): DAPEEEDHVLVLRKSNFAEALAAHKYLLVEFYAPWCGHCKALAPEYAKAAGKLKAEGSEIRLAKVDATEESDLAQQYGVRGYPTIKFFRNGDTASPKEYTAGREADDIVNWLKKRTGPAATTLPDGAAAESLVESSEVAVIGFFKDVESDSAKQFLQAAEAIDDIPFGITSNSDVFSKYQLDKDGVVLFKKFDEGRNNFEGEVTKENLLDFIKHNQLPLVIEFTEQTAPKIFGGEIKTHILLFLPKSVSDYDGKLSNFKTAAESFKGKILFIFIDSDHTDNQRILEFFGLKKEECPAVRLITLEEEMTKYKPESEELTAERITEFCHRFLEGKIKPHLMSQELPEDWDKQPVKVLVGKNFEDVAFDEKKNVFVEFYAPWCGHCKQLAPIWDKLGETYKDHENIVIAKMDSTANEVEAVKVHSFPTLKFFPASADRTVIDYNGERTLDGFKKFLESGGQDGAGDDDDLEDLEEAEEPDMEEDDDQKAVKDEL

Regarding `O=C(O)[C@@H]1CSC(c2cc(Br)cc(Br)c2O)N1` (some centres unmarked), the results for the IC50 on prolyl hydroxylase (setting [1]) and on lysyl hydroxylase (setting [2]) were 50 to 100 µM and 10 µM, respectively.
`O=C(O)c1csc(-c2cc(Cl)ccc2O)n1`: the IC50 on prolyl hydroxylase (setting [3]) worked out at 71 µM; at lysyl hydroxylase (setting [4]), 188 µM.
Turning to `O=C(O)[C@@H]1CSC(c2cc(Cl)cc(Cl)c2O)N1` (some centres unmarked), the IC50 on prolyl hydroxylase (setting [1]) and on lysyl hydroxylase (setting [2]) was 50 to 100 µM in each case.
Consider `O=C(O)C1CSC(c2cc(Cl)ccc2O)=N1` (centres unmarked), for which the IC50 on prolyl hydroxylase (setting [1]) came to 16 µM; with collagen biosynthesis it was 17 µM; at lysyl hydroxylase (setting [2]) it was 12 µM.
On to `Nc1ccc(O)c(-c2nc(C(=O)O)cs2)c1`, for which the values for the IC50 on prolyl hydroxylase (setting [3]) and at lysyl hydroxylase (setting [4]) were 5.6 µM and 29 µM, respectively.
Take `O=C(O)C1CSC(c2ccccc2O)=N1` (centres unmarked): the IC50 at prolyl hydroxylase (setting [1]) was 20 µM; at lysyl hydroxylase (setting [2]), 28 µM.
As for `O=C(O)[C@@H]1CSC(c2cc([N+](=O)[O-])ccc2O)N1` (some centres unmarked), the IC50 on prolyl hydroxylase (setting [1]) and on lysyl hydroxylase (setting [2]) was 50 to 100 µM throughout.
With `Cc1ccc(O)c(-c2nc(C(=O)O)cs2)c1`, the IC50 on prolyl hydroxylase (setting [1]) turned out to be 42 µM; on lysyl hydroxylase (setting [2]), 67 µM.
For `Cc1ccc(O)c(C2=NC(C(=O)O)CS2)c1` (centres unmarked), the IC50 was determined as 28 µM at prolyl hydroxylase (setting [1]), 34 µM in the experiment on collagen biosynthesis and 28 µM on lysyl hydroxylase (setting [2]).
For the compound `O=C(O)c1csc(-c2cc(Cl)c3ccccc3c2O)n1`, the IC50 came out at 28.2 µM on prolyl hydroxylase (setting [3]) and 31.6 µM on lysyl hydroxylase (setting [4]).
For the compound `O=C(O)C1CSC(c2ccc(O)cc2O)=N1` (centres unmarked), the IC50 at prolyl hydroxylase (setting [1]) was determined as 26 µM; on lysyl hydroxylase (setting [2]) it was 16 µM.
As for `O=C(O)c1nc(-c2ccc(O)cc2O)sc1-c1ccccc1`, the IC50 on prolyl hydroxylase (setting [3]) is 27 µM; on lysyl hydroxylase (setting [4]) it was 21 µM.
For `O=C(O)[C@@H]1CSC(c2ccccc2O)N1` (some centres unmarked), the IC50 on prolyl hydroxylase (setting [1]) and on lysyl hydroxylase (setting [2]) was 28 µM throughout.
As to `Cc1ccc(O)c(-c2nc(C(=O)O)c(C(=O)O)s2)c1`, the figures for the IC50 on prolyl hydroxylase (setting [3]) and at lysyl hydroxylase (setting [4]) were 67 µM and 144 µM, respectively.
The like results for `Cc1ccc(O)c(-c2nc(C(=O)O)c(-c3ccccc3)s2)c1` were, in that order, 26 µM and 34 µM.
